Test results reported in patent US20090118274A1, “MONOCYCLIC AMINOPROPYL TETRAHYDRO-PYRAZOLO-PYRIDINE MODULATORS OF CATHEPSIN S” (priority 2007, published 2009).
pIC50: −log10 of the molar value.

Molecular target: T1, Recombinant human cathepsin S (CatS) (Homo sapiens, UniProt P25774)
T1 construct: made in house
Assay: Recombinant human cathepsin S (CatS) fluorogenic substrate inhibition assay
Assay type: biochemical
Settings: not given
Experimental: Recombinant human cathepsin S (CatS) was expressed in the baculovirus system and purified in one step with a thiopropyl-sepharose column. […] The assay is run in 150 mM sodium acetate pH 5.0 containing 1.5 mM DTT and 150 mM NaCl. […] Measurements are taken every min for 20 min. The rate is calculated from the slope of the increase in fluorescence and the percent inhibition is calculated from this.

T1 sequence (P25774 115-331): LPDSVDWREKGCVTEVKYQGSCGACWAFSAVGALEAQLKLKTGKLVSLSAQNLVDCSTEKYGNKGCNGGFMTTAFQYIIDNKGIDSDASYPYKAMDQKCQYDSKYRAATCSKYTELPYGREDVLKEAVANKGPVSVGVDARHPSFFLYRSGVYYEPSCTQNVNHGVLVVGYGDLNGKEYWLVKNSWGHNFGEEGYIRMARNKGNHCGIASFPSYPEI

**Q.** With `CS(=O)(=O)N1CCc2c(c(-c3ccc(C(F)(F)F)c(CNC(=O)c4cccc(C(=O)O)c4)c3)nn2CC(O)CN2CCCC2)C1` (stereo not drawn) [Example 191, N-{5-[1-(2-Hydroxy-3-pyrrolidin-1-yl-propyl)-5-methanesulfonyl-4,5,6,7-tetrahydro-1H-pyrazolo[4,3-c]pyridin-3-yl]-2-trifluoromethyl-benzyl]-isophthalamic acid] as the compound, how does the pIC50 read?
**A.** 6.11

**Q.** With `CS(=O)(=O)N1CCc2c(c(-c3ccc(Cl)c(CNC(=O)c4ccccc4)c3)nn2CCCN2CCCC2)C1` [Example 2, N-{2-Chloro-5-[5-methanesulfonyl-1-(3-pyrrolidin-1-yl-propyl)-4,5,6,7-tetrahydro-1H-pyrazolo[4,3-c]pyridin-3-yl]-benzyl}-benzamide] as the compound, how does the pIC50 read?
**A.** 6.49

Same assay, conditions: average of results obtained; substrate Z-Valine-Valine-Arginine-AMC 10 μM, pH 5.0; read-out: CatS IC50

**Q.** With `CC(=O)NC1CCN(CC(O)Cn2nc(-c3ccc(Cl)c(CNC(=O)c4ccc(F)cc4)c3)c3c2CCN(S(C)(=O)=O)C3)CC1` (stereo not drawn) [Example 13, N-(5-{1-[3-(4-Acetylamino-piperidin-1-yl)-2-hydroxy-propyl]-5-methanesulfonyl-4,5,6,7-tetrahydro-1H-pyrazolo[4,3-c]pyridin-3-yl}-2-chloro-benzyl)-4-fluoro-benzamide] as the compound, how does the pIC50 read?
**A.** 7.40

**Q.** `CS(=O)(=O)N1CCc2c(c(-c3ccc(C(F)(F)F)c(CNC(=O)c4ccc(Cl)cc4)c3)nn2CC(O)CN2CCCC2)C1` (stereo not drawn) [Example 224, 4-Chloro-N-{5-[1-(2-hydroxy-3-pyrrolidin-1-yl-propyl)-5-methanesulfonyl-4,5,6,7-tetrahydro-1H-pyrazolo[4,3-c]pyridin-3-yl]-2-trifluoromethyl-benzyl}-benzamide] was tested. Which pIC50 did it give?
**A.** 6.14

**Q.** With `CS(=O)(=O)N1CCc2c(c(-c3ccc(Cl)c(CC(=O)Nc4ccccc4)c3)nn2CCCN2CCOCC2)C1` [Example 291, 2-{2-Chloro-5-[5-methanesulfonyl-1-(3-morpholin-4-yl-propyl)-4,5,6,7-tetrahydro-1H-pyrazolo[4,3-c]pyridin-3-yl]-phenyl}-N-phenyl-acetamide] as the compound, how does the pIC50 read?
**A.** 5.55

**Q.** With `CS(=O)(=O)N1CCc2c(c(-c3ccc(C(F)(F)F)c(CNC(=O)c4ccc(F)c(Cl)c4)c3)nn2CC(O)CN2CCCC2)C1` (stereo not drawn) [Example 61, 3-Chloro-4-fluoro-N-{5-[1-(2-hydroxy-3-pyrrolidin-1-yl-propyl)-5-methanesulfonyl-4,5,6,7-tetrahydro-1H-pyrazolo[4,3-c]pyridin-3-yl]-2-trifluoromethyl-benzyl}-benzamide] as the compound, how does the pIC50 read?
**A.** 6.72

**Q.** `CS(=O)(=O)N1CCc2c(c(-c3ccc(C(F)(F)F)c(CNC(=O)c4ccc(F)cc4F)c3)nn2CC(O)CN2CCCC2)C1` (stereo not drawn) [Example 101, 2,4-Difluoro-N-{5-[1-(2-hydroxy-3-pyrrolidin-1-yl-propyl)-5-methanesulfonyl-4,5,6,7-tetrahydro-1H-pyrazolo[4,3-c]pyridin-3-yl]-2-trifluoromethyl-benzyl}-benzamide] was tested. Which pIC50 did it give?
**A.** 6.36

**Q.** With `CC(C)=CC(=O)NCc1cc(-c2nn(CC(O)CN3CCC(N(C)C)CC3)c3c2CN(S(C)(=O)=O)CC3)ccc1C(F)(F)F` (stereo not drawn) [Example 34, 3-Methyl-but-2-enoic acid 5-{1-[3-(4-dimethylamino-piperidin-1-yl)-2-hydroxy-propyl]-5-methanesulfonyl-4,5,6,7-tetrahydro-1H-pyrazolo[4,3-c]pyridin-3-yl}-2-trifluoromethyl-benzylamide] as the compound, how does the pIC50 read?
**A.** 6.59

**Q.** `CC(C)CC(=O)NCc1cc(-c2nn(CC(O)CN3CCC(C)(C)CC3)c3c2CN(S(C)(=O)=O)CC3)ccc1C(F)(F)F` (stereo not drawn) [Example 251, N-(5-{1-[3-(4,4-Dimethyl-piperidin-1-yl)-2-hydroxy-propyl]-5-methanesulfonyl-4,5,6,7-tetrahydro-1H-pyrazolo[4,3-c]pyridin-3-yl}-2-trifluoromethyl-benzyl)-3-methyl-butyramide] was tested. Which pIC50 did it give?
**A.** 6.52

**Q.** `CS(=O)(=O)N1CCc2c(c(-c3ccc(Cl)c(CNC(=O)c4ccc(Cl)c(Cl)c4)c3)nn2CCCN2CCCC2)C1` [Example 87, 3,4-Dichloro-N-{2-chloro-5-[5-methanesulfonyl-1-(3-pyrrolidin-1-yl-propyl)-4,5,6,7-tetrahydro-1H-pyrazolo[4,3-c]pyridin-3-yl]-benzyl}-benzamide] was tested. Which pIC50 did it give?
**A.** 5.99

**Q.** `CS(=O)(=O)N1CCc2c(c(-c3ccc(C(F)(F)F)c(CNC(=O)c4ccc(C(F)(F)F)cc4)c3)nn2CC(O)CN2CCCC2)C1` (stereo not drawn) [Example 225, N-{5-[1-(2-Hydroxy-3-pyrrolidin-1-yl-propyl)-5-methanesulfonyl-4,5,6,7-tetrahydro-1H-pyrazolo[4,3-c]pyridin-3-yl]-2-trifluoromethyl-benzyl]-4-trifluoromethyl-benzamide] was tested. Which pIC50 did it give?
**A.** 6.12

**Q.** With `CC(C)=CC(=O)NCc1cc(-c2nn(CC(O)CN3CCC(NS(C)(=O)=O)CC3)c3c2CN(S(C)(=O)=O)CC3)ccc1C(F)(F)F` (stereo not drawn) [Example 269, 3-Methyl-but-2-enoic acid 5-{1-[2-hydroxy-3-(4-methanesulfonylamino-piperidin-1-yl)-propyl]-5-methanesulfonyl-4,5,6,7-tetrahydro-1H-pyrazolo[4,3-c]pyridin-3-yl}-2-trifluoromethyl-benzylamide] as the compound, how does the pIC50 read?
**A.** 7.52

**Q.** `CS(=O)(=O)N1CCc2c(c(-c3ccc(C(F)(F)F)c(CNC(=O)c4cccc(C#N)c4)c3)nn2CC(O)CN2CCCC2)C1` (stereo not drawn) [Example 159, 3-Cyano-N-{5-[1-(2-hydroxy-3-pyrrolidin-1-yl-propyl)-5-methanesulfonyl-4,5,6,7-tetrahydro-1H-pyrazolo[4,3-c]pyridin-3-yl]-2-trifluoromethyl-benzyl}-benzamide] was tested. Which pIC50 did it give?
**A.** 6.54

**Q.** How did the pIC50 turn out when `CC(C)=CC(=O)NCc1cc(-c2nn(CC(O)CN3CCC(F)(F)CC3)c3c2CN(S(C)(=O)=O)CC3)ccc1C(F)(F)F` (stereo not drawn) [Example 31, 3-Methyl-but-2-enoic acid 5-{1-[3-(4,4-difluoro-piperidin-1-yl)-2-hydroxy-propyl]-5-methanesulfonyl-4,5,6,7-tetrahydro-1H-pyrazolo[4,3-c]pyridin-3-yl}-2trifluoromethyl-benzylamide] was run?
**A.** 6.96

**Q.** `CS(=O)(=O)N1CCc2c(c(-c3ccc(C(F)(F)F)c(CNC(=O)c4ccccc4Cl)c3)nn2CC(O)CN2CCCC2)C1` (stereo not drawn) [Example 62, 2-Chloro-N-{5-[1-(2-hydroxy-3-pyrrolidin-1-yl-propyl)-5-methanesulfonyl-4,5,6,7-tetrahydro-1H-pyrazolo[4,3-c]pyridin-3-yl]-2-trifluoromethyl-benzyl}-benzamide] was tested. Which pIC50 did it give?
**A.** 6.66

**Q.** `C/N=c1/ccccn1CC(O)Cn1nc(-c2ccc(Cl)c(CNC(=O)c3ccc(F)cc3)c2)c2c1CCN(S(C)(=O)=O)C2` (stereo not drawn) [Example 221, N-(2-Chloro-5-{1-[2-hydroxy-3-(2-methylimino-2H-pyridin-1-yl)-propyl]-5-methanesulfonyl-4,5,6,7-tetrahydro-1H-pyrazolo[4,3-c]pyridin-3-yl}-benzyl)-4-fluoro-benzamide] was tested. Which pIC50 did it give?
**A.** 6.17

**Q.** With `CS(=O)(=O)N1CCc2c(c(-c3ccc(C(F)(F)F)c(CNC(=O)c4ccc(F)cc4)c3)nn2CC(O)CN2CCNC(=O)C2)C1` (stereo not drawn) [Example 19, 4-Fluoro-N-(5-{1-[2-hydroxy-3-(3-oxo-piperazin-1-yl)-propyl]-5-methanesulfonyl-4,5,6,7-tetrahydro-1H-pyrazolo[4,3-c]pyridin-3-yl}-2-trifluoromethyl-benzyl)-benzamide] as the compound, how does the pIC50 read?
**A.** 6.48

**Q.** `O=C(NCc1cc(-c2nn(CC(O)CN3CCC4(CCNC4=O)CC3)c3c2CN(C(=O)CO)CC3)ccc1C(F)(F)F)c1ccc(F)cc1` (stereo not drawn) [Example 8, 4-Fluoro-N-(5-{5-(2-hydroxy-acetyl)-1-[2-hydroxy-3-(1-oxo-2,8-diazaspiro[4.5]dec-8-yl)-propyl]-4,5,6,7-tetrahydro-1H-pyrazolo[4,3-c]pyridin-3-yl}-2-trifluoromethyl-benzyl)-benzamide] was tested. Which pIC50 did it give?
**A.** 7.70

**Q.** `CC(C)CC(=O)NCc1cc(-c2nn(CC(O)CN3CCC(O)C3)c3c2CN(S(C)(=O)=O)CC3)ccc1C(F)(F)F` (stereo not drawn) [Example 246, N-(5-{1-[2-Hydroxy-3-(3-hydroxy-pyrrolidin-1-yl)-propyl]-5-methanesulfonyl-4,5,6,7-tetrahydro-1H-pyrazolo[4,3-c]pyridin-3-yl}-2-trifluoromethyl-benzyl)-3-methyl-butyramide] was tested. Which pIC50 did it give?
**A.** 6.37

**Q.** `CC(=O)NC1CCN(CC(O)Cn2nc(-c3ccc(C(F)(F)F)c(CNC(=O)C=C(C)C)c3)c3c2CCN(S(C)(=O)=O)C3)CC1` (stereo not drawn) [Example 29, 3-Methyl-but-2-enoic acid 5-{1-[3-(4-acetylamino-piperidin-1-yl)-2-hydroxy-propyl]-5-methanesulfonyl-4,5,6,7-tetrahydro-1H-pyrazolo[4,3-c]pyridin-3-yl}-2-trifluoromethyl-benzylamide] was tested. Which pIC50 did it give?
**A.** 8.00

**Q.** `CS(=O)(=O)N1CCc2c(c(-c3ccc(Cl)c(CNC(=O)c4cccnc4)c3)nn2CCCN2CCCC2)C1` [Example 232, N-{2-Chloro-5-[5-methanesulfonyl-1-(3-pyrrolidin-1-yl-propyl)-4,5,6,7-tetrahydro-1H-pyrazolo[4,3-c]pyridin-3-yl]-benzyl}-nicotinamide] was tested. Which pIC50 did it give?
**A.** 6.09

**Q.** `O=C(NCc1cc(-c2nn(CC(O)CN3CCC4(CCNC4=O)CC3)c3c2CNCC3)ccc1C(F)(F)F)c1ccc(F)cc1` (stereo not drawn) [Example 238, 4-Fluoro-N-(5-{1-[2-hydroxy-3-(1-oxo-2,8-diaza-spiro[4.5]dec-8-yl)-propyl]-4,5,6,7-tetrahydro-1H-pyrazolo[4,3-c]pyridin-3-yl}-2-trifluoromethyl-benzyl)-benzamide] was tested. Which pIC50 did it give?
**A.** 6.03

**Q.** With `CS(=O)(=O)N1CCc2c(c(-c3ccc(Cl)c(CNS(=O)(=O)c4ccc(Cl)c(Cl)c4)c3)nn2CCCN2CCCC2)C1` [Example 197, 3,4-Dichloro-N-{2-chloro-5-[5-methanesulfonyl-1-(3-pyrrolidin-1-yl-propyl)-4,5,6,7-tetrahydro-1H-pyrazolo[4,3-c]pyridin-3-yl]-benzyl}-benzenesulfonamide] as the compound, how does the pIC50 read?
**A.** 5.27

**Q.** With `CS(=O)(=O)N1CCc2c(c(-c3ccc(C(F)(F)F)c(CNC(=O)c4ccc(F)cc4)c3)nn2CC(O)CN2CCS(=O)(=O)CC2)C1` (stereo not drawn) [Example 169, N-(5-{1-[3-(1,1-Dioxo-1λ^6-thiomorpholin-4-yl)-2-hydroxy-propyl]-5-methanesulfonyl-4,5,6,7-tetrahydro-1H-pyrazolo[4,3-c]pyridin-3-yl}-2-trifluoromethyl-benzyl)-4-fluoro-benzamide] as the compound, how does the pIC50 read?
**A.** 6.26
